Measured values reported in patent publication US10370371B2, “Substituted pyrimidine Bmi-1 inhibitors” (PTC Therapeutics, Inc., priority 2013, dated 2019).

Experiments:
Bmi-1 protein = assay: Sandwich ELISA Assay (Bmi-1 protein level in HT-1080 cells); type: cell-based
Method in brief: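 HT-1080 cells were treated with compounds (0.5% DMSO final) for 40-48 h at 37 °C. Lysates were assayed by sandwich ELISA: mouse anti-Bmi-1 capture, rabbit anti-Bmi-1 and HRP anti-rabbit detection, TMB read at OD450 (OD570 reference). Levels were quantified against a recombinant GST-Bmi-1 standard curve (125-8000 pg/mL).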

EC50 (Bmi-1 protein) [nM] | melting point [°C] | Structure (SMILES)
1 to 10 | 118 to 119 | Cc1nc2ccccc2n1-c1cc(N)nc(Nc2ccc3c(c2)OCO3)n1 [Cpd 130, N^2-(1,3-benzodioxol-5-yl)-6-(2-methyl-1H-benzimidazol-1-yl)pyrimidine-2,4-diamine]
1 to 10 | 118 to 120 | Cc1ccc(Nc2nc(N)cc(-n3c(C)nc4ccc(F)cc43)n2)cc1 [Cpd 134, 6-(6-fluoro-2-methyl-1H-benzimidazol-1-yl)-N^2-(4-methylphenyl)pyrimidine-2,4-diamine]
10 to 100 | 149 to 151 | Cc1nc2ccc(F)cc2n1-c1cc(N)nc(Nc2ccc(Cl)cc2)n1 [Cpd 135, N^2-(4-chlorophenyl)-6-(6-fluoro-2-methyl-1H-benzimidazol-1-yl)pyrimidine-2,4-diamine]
1 to 10 | 232 to 235 | Cc1nc2ccc(F)cc2n1-c1cc(N)nc(Nc2ccc(N(C)C)cc2)n1 [Cpd 136, N^2-[4-(dimethylamino)phenyl]-6-(6-fluoro-2-methyl-1H-benzimidazol-1-yl)pyrimidine-2,4-diamine]
100 to 3000 | 183 to 185 | Cc1nc2ccc(F)cc2n1-c1cc(N)nc(Nc2ccc(C#N)cc2)n1 [Cpd 137, 4-{[4-amino-6-(6-fluoro-2-methyl-1H-benzimidazol-1-yl)pyrimidin-2-yl]amino}benzonitrile]
100 to 3000 | 239 to 241 | Cc1nc2ccc(F)cc2n1-c1cc(N)nc(Nc2cccc(F)c2)n1 [Cpd 138, 6-(6-fluoro-2-methyl-1H-benzimidazol-1-yl)-N^2-(3-fluorophenyl)pyrimidine-2,4-diamine]
100 to 3000 | 156 to 158 | Cc1cccc(Nc2nc(N)cc(-n3c(C)nc4ccc(F)cc43)n2)c1 [Cpd 139, 6-(6-fluoro-2-methyl-1H-benzimidazol-1-yl)-N^2-(3-methylphenyl)pyrimidine-2,4-diamine]
100 to 3000 | 127 to 129 | COc1cccc(Nc2nc(N)cc(-n3c(C)nc4ccc(F)cc43)n2)c1 [Cpd 140, 6-(6-fluoro-2-methyl-1H-benzimidazol-1-yl)-N^2-(3-methoxyphenyl)pyrimidine-2,4-diamine]
100 to 3000 | 211 to 213 | Cc1nc2ccc(F)cc2n1-c1cc(N)nc(Nc2cccc(Cl)c2)n1 [Cpd 141, N^2-(3-chlorophenyl)-6-(6-fluoro-2-methyl-1H-benzimidazol-1-yl)pyrimidine-2,4-diamine]
1 to 10 | 166 to 167 | COc1ccc(Nc2nc(N)cc(-n3c(C)nc4ccc(F)cc43)n2)cc1F [Cpd 142, N^2-(3-fluoro-4-methoxyphenyl)-6-(6-fluoro-2-methyl-1H-benzimidazol-1-yl)pyrimidine-2,4-diamine]
100 to 3000 | 158 to 161 | Cc1nc2ccc(F)cc2n1-c1cc(N)nc(Nc2ccccc2)n1 [Cpd 143, 6-(6-fluoro-2-methyl-1H-benzimidazol-1-yl)-N^2-phenylpyrimidine-2,4-diamine]
1 to 10 | 186 to 187 | COc1ccc(Nc2nc(N)cc(-n3c(C)nc4ccccc43)n2)cc1F [Cpd 148, N^2-(3-fluoro-4-methoxyphenyl)-6-(2-methyl-1H-benzimidazol-1-yl)pyrimidine-2,4-diamine]
1 to 10 | 172 to 173 | CCc1nc2ccccc2n1-c1cc(N)nc(Nc2ccc(Cl)cc2)n1 [Cpd 150, N^2-(4-chlorophenyl)-6-(2-ethyl-1H-benzimidazol-1-yl)pyrimidine-2,4-diamine]
1 to 10 | 144 to 145 | CCc1nc2ccccc2n1-c1cc(N)nc(Nc2ccc(OC)cc2)n1 [Cpd 151, 6-(2-ethyl-1H-benzimidazol-1-yl)-N^2-(4-methoxyphenyl)pyrimidine-2,4-diamine]
100 to 3000 | 119 to 120 | CCc1nc2ccccc2n1-c1cc(N)nc(Nc2ccccc2C)n1 [Cpd 152, 6-(2-ethyl-1H-benzimidazol-1-yl)-N^2-(2-methylphenyl)pyrimidine-2,4-diamine]
10 to 100 | 119 to 121 | CCc1nc2ccccc2n1-c1cc(N)nc(Nc2ccc3c(c2)OCO3)n1 [Cpd 154, N^2-(1,3-benzodioxol-5-yl)-6-(2-ethyl-1H-benzimidazol-1-yl)pyrimidine-2,4-diamine]
1 to 10 | 104 to 106 | CCc1nc2ccccc2n1-c1cc(N)nc(Nc2ccc(OC)c(F)c2)n1 [Cpd 155, 6-(2-ethyl-1H-benzimidazol-1-yl)-N^2-(3-fluoro-4-methoxyphenyl)pyrimidine-2,4-diamine]
10 to 100 | 100 to 103 | CCc1nc2ccccc2n1-c1cc(N)nc(Nc2ccc(OC)c(Cl)c2)n1 [Cpd 156, N^2-(3-chloro-4-methoxyphenyl)-6-(2-ethyl-1H-benzimidazol-1-yl)pyrimidine-2,4-diamine]

EC50 (Bmi-1 protein) [nM] | melting point [°C] | Structure (SMILES)
10 to 100 | 104 to 106 | COc1ccc(Nc2nc(N)cc(-n3c(C)nc4ccccc43)n2)cn1 [Cpd 157, N^2-(6-methoxypyridin-3-yl)-6-(2-methyl-1H-benzimidazol-1-yl)pyrimidine-2,4-diamine]
1 to 10 | 185 to 187 | CCc1nc2ccc(F)cc2n1-c1cc(N)nc(Nc2ccc(Cl)cc2)n1 [Cpd 158, N^2-(4-chlorophenyl)-6-(2-ethyl-6-fluoro-1H-benzimidazol-1-yl)pyrimidine-2,4-diamine]
100 to 3000 | 160 to 162 | CCc1nc2ccc(F)cc2n1-c1cc(N)nc(Nc2ccccc2)n1 [Cpd 159, 6-(2-ethyl-6-fluoro-1H-benzimidazol-1-yl)-N^2-phenylpyrimidine-2,4-diamine]
1 to 10 | 187 to 189 | CCc1nc2ccc(F)cc2n1-c1cc(N)nc(Nc2ccc(C)cc2)n1 [Cpd 160, 6-(2-ethyl-6-fluoro-1H-benzimidazol-1-yl)-N^2-(4-methylphenyl)pyrimidine-2,4-diamine]
1 to 10 | 166 to 168 | CCc1nc2ccc(F)cc2n1-c1cc(N)nc(Nc2ccc(OC)cc2)n1 [Cpd 161, 6-(2-ethyl-6-fluoro-1H-benzimidazol-1-yl)-N^2-(4-methoxyphenyl)pyrimidine-2,4-diamine]
10 to 100 | 230 to 232 | CCc1nc2ccc(F)cc2n1-c1cc(N)nc(Nc2ccc(N(C)C)cc2)n1 [Cpd 162, N^2-[4-(dimethylamino)phenyl]-6-(2-ethyl-6-fluoro-1H-benzimidazol-1-yl)pyrimidine-2,4-diamine]
100 to 3000 | 169 to 171 | CCc1nc2ccc(F)cc2n1-c1cc(N)nc(Nc2cccc(F)c2)n1 [Cpd 163, 6-(2-ethyl-6-fluoro-1H-benzimidazol-1-yl)-N^2-(3-fluorophenyl)pyrimidine-2,4-diamine]
100 to 3000 | 133 to 135 | CCc1nc2ccc(F)cc2n1-c1cc(N)nc(Nc2cccc(OC)c2)n1 [Cpd 165, 6-(2-ethyl-6-fluoro-1H-benzimidazol-1-yl)-N^2-(3-methoxyphenyl)pyrimidine-2,4-diamine]
100 to 3000 | 149 to 150 | CCc1nc2ccc(F)cc2n1-c1cc(N)nc(Nc2cccc(C)c2)n1 [Cpd 166, 6-(2-ethyl-6-fluoro-1H-benzimidazol-1-yl)-N^2-(3-methylphenyl)pyrimidine-2,4-diamine]
100 to 3000 | 252 to 255 | CCc1nc2ccc(F)cc2n1-c1cc(N)nc(Nc2ccc(C#N)cc2)n1 [Cpd 167, 4-{[4-amino-6-(2-ethyl-6-fluoro-1H-benzimidazol-1-yl)pyrimidin-2-yl]amino}benzonitrile]
1 to 10 | 129 to 131 | CCc1nc2ccc(F)cc2n1-c1cc(N)nc(Nc2ccc(OC)c(F)c2)n1 [Cpd 168, 6-(2-ethyl-6-fluoro-1H-benzimidazol-1-yl)-N^2-(3-fluoro-4-methoxyphenyl)pyrimidine-2,4-diamine]
100 to 3000 | 250 to 253 | Cc1nc2ccc(F)cn2c1-c1cc(N)nc(Nc2ccc(F)cc2)n1 [Cpd 169, 6-(6-fluoro-2-methylimidazo[1,2-a]pyridin-3-yl)-N^2-(4-fluorophenyl)pyrimidine-2,4-diamine]
1 to 10 | 243 to 246 | Cc1nc2ccc(F)cn2c1-c1cc(N)nc(Nc2ccc(Cl)cc2)n1 [Cpd 172, N^2-(4-chlorophenyl)-6-(6-fluoro-2-methylimidazo[1,2-a]pyridin-3-yl)pyrimidine-2,4-diamine]
10 to 100 | 209 to 211 | CCc1nc2ccc(F)cc2n1-c1cc(N)nc(Nc2ccc(Cl)c(F)c2)n1 [Cpd 175, N^2-(4-chloro-3-fluorophenyl)-6-(2-ethyl-6-fluoro-1H-benzimidazol-1-yl)pyrimidine-2,4-diamine]
100 to 3000 | 111 to 112 | Cc1cc2nc(C)n(-c3cc(N)nc(Nc4ccc(Cl)cc4)n3)c2cc1C [Cpd 184, N^2-(4-chlorophenyl)-6-(2,5,6-trimethyl-1H-benzimidazol-1-yl)pyrimidine-2,4-diamine]
10 to 100 | 113 to 114 | COc1ccc(Nc2nc(N)cc(-n3c(C)nc4cc(C)c(C)cc43)n2)cc1 [Cpd 185, N^2-(4-methoxyphenyl)-6-(2,5,6-trimethyl-1H-benzimidazol-1-yl)pyrimidine-2,4-diamine]
10 to 100 | 120 to 121 | COc1ccc(Nc2nc(N)cc(-n3c(C)nc4cc(C)c(C)cc43)n2)cc1F [Cpd 186, N^2-(3-fluoro-4-methoxyphenyl)-6-(2,5,6-trimethyl-1H-benzimidazol-1-yl)pyrimidine-2,4-diamine]
10 to 100 | 129 to 131 | COc1ccc(Nc2nc(N)cc(-n3c(C)nc4cc(C)c(C)cc43)n2)cc1Cl [Cpd 187, N^2-(3-chloro-4-methoxyphenyl)-6-(2,5,6-trimethyl-1H-benzimidazol-1-yl)pyrimidine-2,4-diamine]
